{"source": "patent US20070003987A1", "about": "“Screening method for substance binding to merozoite surface protein-1/42” (priority 2003, published 2007)", "key": {"MSP142": {"biological_target": "MSP142 (Plasmodium falciparum, UniProt Q8I0U8)", "sequence (Q8I0U8 1327-1699)": "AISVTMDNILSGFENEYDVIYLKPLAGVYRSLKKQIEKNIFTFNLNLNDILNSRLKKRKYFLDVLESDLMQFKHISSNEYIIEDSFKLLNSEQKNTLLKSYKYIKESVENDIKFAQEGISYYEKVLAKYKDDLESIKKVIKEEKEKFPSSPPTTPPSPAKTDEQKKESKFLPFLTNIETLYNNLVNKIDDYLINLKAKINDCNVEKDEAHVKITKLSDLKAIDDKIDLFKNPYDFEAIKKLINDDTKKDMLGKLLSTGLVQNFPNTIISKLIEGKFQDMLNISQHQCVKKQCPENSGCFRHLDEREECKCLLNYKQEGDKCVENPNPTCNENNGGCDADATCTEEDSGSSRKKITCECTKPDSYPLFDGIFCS", "experiment": "inhibition of suramin binding (fluorescence, 384-well plate)", "details": "λex 320 nm/λem 405 nm", "method": "MSP142 (0.1 mg/ml), 10 μM suramin analogue and 2 μM suramin were combined in a 384-well black polypropylene low binding plate (total reaction volume 100 μL). Fluorescence was read at λex 320 nm/λem 405 nm on a BMG Polarstar fluorimeter. Readings were taken before, and 1 hour after, addition of suramin."}, "P. falciparum (FCB-1)": {"test_system": "P. falciparum (FCB-1)", "experiment": "growth inhibition assay by [3H] hypoxanthine uptake", "format": "cell-based, Plasmodium falciparum", "details": "Plasmodium falciparum, Erythrocyte, read-out: IC50, inhibition of erythrocyte invasion ([3H] hypoxanthine incorporation, FIG. 2)", "method": "Asexual blood stages of P. falciparum (FCB-1) were maintained at 37° C. in RPMI 1640/Albumax medium (Gibco) supplemented with 2 mM L-glutamine as previously described (Blackman, 1994 Methods Cell Biol. 45, 213-220). Cultures were gassed with 7% CO2, 5% O2 and 88% N2 and maintained by routine passage in fresh human erythrocytes. Parasites were synchronised by Percoll and sorbitol treatment (Holder & Freeman, 1982 J. Exp. Med. 156, 1528-1538); schizonts were purified by centrifugation over Percoll and then returned to culture in the presence of fresh erythrocytes. After 4 h, during which time released merozoites invaded erythrocytes, the cells were treated with 5% sorbitol for 10 min to lyse the residual schizonts, before returning the parasites to culture.\nSuramin and NTS were also assayed for P. falciparum growth inhibition using [^3H] hypoxanthine uptake (generally as described by Desjardins et al, 1979 Antimicrob. Agents Chemother. 16, 710-718). Serial dilutions of the compounds in 96-well plates were incubated at 37° C. with purified mature schizonts at a final parasitaemia of ^˜0.5% and a haematrocrit of ^˜2% in triplicate cultures. […] The filters were wetted with scintillation cocktail and the bound radioactivity counted in a β-counter. […] The amount of radioactivity in each sample was expressed as a percentage of activity in the control wells containing no compound. […]"}, "[1]": {"biological_target": "T1, MSP119 from P. falciparum (Plasmodium falciparum, UniProt P04933, S1528A)", "T1 construct": "contained the 96 amino acid MSP119 fragment, preceded by a single His residue; N-terminal leader […]; (His6 + Factor Xa site); made in house; host or cells: Pichia pastoris (vector pPIC9K)", "T1 sequence (P04933 1526-1618 S1528A)": "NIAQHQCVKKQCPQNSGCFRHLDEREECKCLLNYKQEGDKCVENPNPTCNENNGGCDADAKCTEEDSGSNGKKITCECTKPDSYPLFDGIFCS", "experiment": "NMR titration of 15N labelled MSP119 with suramin", "format": "binding", "source_text": "Plasmodium falciparum MSP119 (Swiss-Prot 04933) was expressed from a synthetic gene optimised for Pichia pastoris expression (European Patent No. EP1180120). This construct, inserted at the SnaBI site of vector pPIC9K (Invitrogen), contained the N-terminal leader sequence YHHHHHHIEGRH preceding the MSP119 sequence. A point mutation (Ser3 to Ala) was also introduced to eliminate N-glycosylation at Asn1. Following purification of MSP119 as described previously (Morgan et al, 1999 J. Mol. Biol. 289, 113-122), the N-terminal tag was cleaved with Factor Xa (New England Biolabs) and MSP119 was purified by gel filtration (Superdex 200). The fmal product contained the 96 amino acid MSP119 fragment, preceded by a single His residue.\nNMR experiments were carried out on Varian spectrometers operating at proton frequencies of 500, 600 and 800 MHz. Suramin (0.03-16.0 mM) ^1H spectra were recorded at 5 to 35° C. […] MSP119/suramin samples were examined with either unlablled or ^15N labelled MSP119 in 50 mM sodium phosphate and 100 mM NaCl in 90% H2O/10% D2O at pH 6.5 (pH values are pH meter readings uncorrected for deuterium isotope effects). […] 1D ^1H and 2D ^1H-^15N HSQC NMR spectra were recorded for each concentration of suramin. […]"}}}
{"smiles": "Cc1ccc(C(=O)Nc2ccc(S(=O)(=O)O)c3cc(S(=O)(=O)O)cc(S(=O)(=O)O)c23)cc1NC(=O)c1cccc(NC(=O)Nc2cccc(C(=O)Nc3cc(C(=O)Nc4ccc(S(=O)(=O)O)c5cc(S(=O)(=O)O)cc(S(=O)(=O)O)c45)ccc3C)c2)c1", "note": "[suramin]", "values": [{"measurement": "signal to noise ratio of fluorescence signal", "setting": "MSP142", "value": 1.8}, {"measurement": "IC50", "setting": "P. falciparum (FCB-1)", "value": 0.06, "unit": "mM"}, {"measurement": "Kd", "setting": "[1]", "value": "~15", "unit": "mM"}]}
